Test results: the supplement of paper PMC10307832

Key:
Assay in all cases: relative viability (nuclei count vs DMSO), 5 days (fraction); higher = more cells survive
LC-2-ad = test system: LC-2-ad
Outline: (§1)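 A single step with final 0.05% Triton X-100, 1% formaldehyde and 1 ug/ml Hoechst fixed the cells and stained nuclei 5 days after treatment. Lung cancer cell lines in 1536-well plates had been treated by pin tool the day after seeding with one drug alone or a fixed anchor-drug dose plus five library-drug doses (not always all listed) in √10 steps, and nuclei were counted on 4× images. Relative viability is the ratio of nuclei in treated wells to nuclei in vehicle wells, taken as the median of duplicate plates.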

EKVX = test system: EKVX
Outline: as §1

NCI-H1395 = test system: NCI-H1395
Outline: as §1

NCI-H2347 = test system: NCI-H2347
Outline: as §1

NCI-H2228 = test system: NCI-H2228
Outline: as §1

NCI-H1651 = test system: NCI-H1651
Outline: as §1

LXF-289 = test system: LXF-289
Outline: as §1

CAL-12T = test system: CAL-12T
Outline: as §1

H3255 = test system: H3255
Outline: as §1

NCI-H2087 = test system: NCI-H2087
Outline: as §1

SK-LU-1 = test system: SK-LU-1
Outline: as §1

NCI-H1793 = test system: NCI-H1793
Outline: as §1

NCI-H1915 = test system: NCI-H1915
Outline: as §1

NCI-H1755 = test system: NCI-H1755
Outline: as §1

COR-L 105 = test system: COR-L 105
Outline: as §1

NCI-H1944 = test system: NCI-H1944
Outline: as §1

NCI-H2085 = test system: NCI-H2085
Outline: as §1

NCI-H1437 = test system: NCI-H1437
Outline: as §1

LK-2 = test system: LK-2
Outline: as §1

NCI-H661 = test system: NCI-H661
Outline: as §1

SK-MES-1 = test system: SK-MES-1
Outline: as §1

PC-3 [JPC-3] = test system: PC-3 [JPC-3]
Outline: as §1

EMC-BAC-2 = test system: EMC-BAC-2
Outline: as §1

## Cc1cnc(-c2cnc(NCCNc3ccc(C#N)cn3)nc2-c2ccc(Cl)cc2Cl)[nH]1 + Cc1nc(Nc2ncc(C(=O)Nc3c(C)cccc3Cl)s2)cc(N2CCN(CCO)CC2)n1 [Dasatinib] (partner 0.075 µM)
LC-2-ad; first compound 0.08 µM
  relative viability: 0.662
LC-2-ad; first compound 0.253 µM
  relative viability: 0.486
LC-2-ad; first compound 2.53 µM
  relative viability: 0.471
EKVX; first compound 0.08 µM
  relative viability: 0.608
EKVX; first compound 0.253 µM
  relative viability: 0.518
EKVX; first compound 0.8 µM
  relative viability: 0.494
EKVX; first compound 2.53 µM
  relative viability: 0.493
NCI-H1395; first compound 0.08 µM
  relative viability: 0.405
NCI-H1395; first compound 0.253 µM
  relative viability: 0.401
NCI-H1395; first compound 0.8 µM
  relative viability: 0.443
NCI-H1395; first compound 2.53 µM
  relative viability: 0.432
NCI-H2347; first compound 0.08 µM
  relative viability: 0.279
NCI-H2347; first compound 0.253 µM
  relative viability: 0.309
NCI-H2347; first compound 0.8 µM
  relative viability: 0.283
NCI-H2347; first compound 2.53 µM
  relative viability: 0.333
NCI-H2228; first compound 0.08 µM
  relative viability: 0.548
NCI-H2228; first compound 0.253 µM
  relative viability: 0.554
NCI-H2228; first compound 0.8 µM
  relative viability: 0.494
NCI-H2228; first compound 2.53 µM
  relative viability: 0.424
NCI-H1651; first compound 0.08 µM
  relative viability: 0.426
NCI-H1651; first compound 0.253 µM
  relative viability: 0.436
NCI-H1651; first compound 0.8 µM
  relative viability: 0.376
NCI-H1651; first compound 2.53 µM
  relative viability: 0.355
LXF-289; first compound 0.08 µM
  relative viability: 0.249
LXF-289; first compound 0.253 µM
  relative viability: 0.204
LXF-289; first compound 0.8 µM
  relative viability: 0.189
LXF-289; first compound 2.53 µM
  relative viability: 0.139
CAL-12T; first compound 0.08 µM
  relative viability: 0.523
CAL-12T; first compound 0.253 µM
  relative viability: 0.358
CAL-12T; first compound 0.8 µM
  relative viability: 0.23
CAL-12T; first compound 2.53 µM
  relative viability: 0.198
H3255; first compound 0.08 µM
  relative viability: 0.466
H3255; first compound 0.253 µM
  relative viability: 0.445
H3255; first compound 2.53 µM
  relative viability: 0.388
NCI-H2087; first compound 0.08 µM
  relative viability: 0.837
NCI-H2087; first compound 0.253 µM
  relative viability: 0.698
NCI-H2087; first compound 0.8 µM
  relative viability: 0.919
NCI-H2087; first compound 2.53 µM
  relative viability: 0.614
SK-LU-1; first compound 0.08 µM
  relative viability: 0.185
SK-LU-1; first compound 0.253 µM
  relative viability: 0.185
SK-LU-1; first compound 0.8 µM
  relative viability: 0.18
SK-LU-1; first compound 2.53 µM
  relative viability: 0.226
NCI-H1793; first compound 0.08 µM
  relative viability: 0.384
NCI-H1793; first compound 0.253 µM
  relative viability: 0.365
NCI-H1793; first compound 0.8 µM
  relative viability: 0.411
NCI-H1793; first compound 2.53 µM
  relative viability: 0.468
NCI-H1915; first compound 0.08 µM
  relative viability: 0.339
NCI-H1915; first compound 0.253 µM
  relative viability: 0.294
NCI-H1915; first compound 0.8 µM
  relative viability: 0.342
NCI-H1915; first compound 2.53 µM
  relative viability: 0.311
NCI-H1755; first compound 0.08 µM
  relative viability: 0.435
NCI-H1755; first compound 0.253 µM
  relative viability: 0.427
NCI-H1755; first compound 0.8 µM
  relative viability: 0.398
NCI-H1755; first compound 2.53 µM
  relative viability: 0.399
COR-L 105; first compound 0.08 µM
  relative viability: 0.354
COR-L 105; first compound 0.253 µM
  relative viability: 0.344
COR-L 105; first compound 0.8 µM
  relative viability: 0.282
COR-L 105; first compound 2.53 µM
  relative viability: 0.208
NCI-H1944; first compound 0.08 µM
  relative viability: 0.24
NCI-H1944; first compound 0.8 µM
  relative viability: 0.251
NCI-H1944; first compound 2.53 µM
  relative viability: 0.316
NCI-H2085; first compound 0.08 µM
  relative viability: 0.247
NCI-H2085; first compound 0.253 µM
  relative viability: 0.239
NCI-H2085; first compound 0.8 µM
  relative viability: 0.21
NCI-H2085; first compound 2.53 µM
  relative viability: 0.239
NCI-H1437; first compound 0.08 µM
  relative viability: 0.425
NCI-H1437; first compound 0.253 µM
  relative viability: 0.369
NCI-H1437; first compound 0.8 µM
  relative viability: 0.309
NCI-H1437; first compound 2.53 µM
  relative viability: 0.278
LK-2; first compound 0.08 µM
  relative viability: 0.387
LK-2; first compound 0.253 µM
  relative viability: 0.302
LK-2; first compound 0.8 µM
  relative viability: 0.39
NCI-H661; first compound 0.08 µM
  relative viability: 1.04
NCI-H661; first compound 0.253 µM
  relative viability: 0.778
NCI-H661; first compound 0.8 µM
  relative viability: 0.845
NCI-H661; first compound 2.53 µM
  relative viability: 0.794
SK-MES-1; first compound 0.08 µM
  relative viability: 0.332
SK-MES-1; first compound 0.253 µM
  relative viability: 0.425
SK-MES-1; first compound 0.8 µM
  relative viability: 0.401
SK-MES-1; first compound 2.53 µM
  relative viability: 0.247
PC-3 [JPC-3]; first compound 0.08 µM
  relative viability: 0.926
PC-3 [JPC-3]; first compound 0.253 µM
  relative viability: 0.88
PC-3 [JPC-3]; first compound 0.8 µM
  relative viability: 0.929
PC-3 [JPC-3]; first compound 2.53 µM
  relative viability: 1
EMC-BAC-2; first compound 0.08 µM
  relative viability: 0.409
EMC-BAC-2; first compound 0.253 µM
  relative viability: 0.336
EMC-BAC-2; first compound 0.8 µM
  relative viability: 0.317
EMC-BAC-2; first compound 2.53 µM
  relative viability: 0.332
